Test results reported in ChEMBL document CHEMBL5724914, “Linking interpersonal differences in gut microbiota composition and drug biotransformation activity” (2024).

What was measured:
[1] = human gut metagenome, 24 h, 2 µM
[2] = (§1) The drug is tested on Z-019 corresponding to rat gut metagenome with ENA study accession number: PRJEB37062 and ENA sample accession number: ERS12561818 for biotransformation under anaerobic condition. The drug concentrations were measured over 9 timepoints collected between 0 and 24 hours of incubation by liquid-chromatography-coupled mass spectrometry (LC–MS); conditions: 2 µM
[3] = human gut metagenome, 24 h, 2 µM; remark: listed apart in the source
[4] = as §1, with “on WLS-310” for “on Z-019”, “to human” for “to rat”, “number: ERS12561785” for “number: ERS12561818”; conditions: 2 µM
[5] = as §1, with “Z-014” for “Z-019”, “ERS12561814” for “ERS12561818”; conditions: 2 µM
[6] = as §1, with “on WLS-010” for “on Z-019”, “to human” for “to rat”, “number: ERS12561743” for “number: ERS12561818”; conditions: 2 µM
[7] = human gut metagenome, 24 h, 2 µM; remark: listed apart in the source
[8] = as §1, with “on WLS-039” for “on Z-019”, “to human” for “to rat”, “number: ERS12561746” for “number: ERS12561818”; conditions: 2 µM
[9] = as §1, with “on WLS-098” for “on Z-019”, “to human” for “to rat”, “number: ERS12561754” for “number: ERS12561818”; conditions: 2 µM
[10] = as §1, with “on WLS-052” for “on Z-019”, “to human” for “to rat”, “number: ERS12561747” for “number: ERS12561818”; conditions: 2 µM
[11] = as §1, with “on Z-006” for “on Z-019”, “to mouse” for “to rat”, “number: ERS12561806” for “number: ERS12561818”; conditions: 2 µM
[12] = human gut metagenome, 24 h, 2 µM; remark: listed apart in the source
[13] = as §1, with “Z-008” for “Z-019”, “to” for “to rat gut”, “ERS12561808” for “ERS12561818”; conditions: 2 µM
[14] = as §1, with “Z-012” for “Z-019”, “to” for “to rat gut”, “ERS12561812” for “ERS12561818”; conditions: 2 µM
[15] = as §1, with “on WLS-170” for “on Z-019”, “to human” for “to rat”, “number: ERS12561762” for “number: ERS12561818”; conditions: 2 µM
[16] = human gut metagenome, 24 h, 2 µM; remark: listed apart in the source
[17] = as §1, with “on Z-002” for “on Z-019”, “to rabbit” for “to rat”, “number: ERS12561802” for “number: ERS12561818”; conditions: 2 µM
[18] = human gut metagenome, 24 h, 2 µM; remark: listed apart in the source
[19] = human gut metagenome, 24 h, 2 µM; remark: listed apart in the source
[20] = human gut metagenome, 24 h, 2 µM; remark: listed apart in the source
Further: call rule not given here.

Bacterial Biotransformation [1]	Bacterial Biotransformation [2]	Bacterial Biotransformation [3]	Bacterial Biotransformation [4]	Bacterial Biotransformation [5]	Bacterial Biotransformation [7]	Bacterial Biotransformation [8]	Bacterial Biotransformation [9]	Bacterial Biotransformation [10]	Bacterial Biotransformation [11]	Bacterial Biotransformation [12]	Bacterial Biotransformation [13]	Bacterial Biotransformation [14]	Bacterial Biotransformation [15]	Bacterial Biotransformation [16]	Bacterial Biotransformation [17]	Bacterial Biotransformation [18]	Bacterial Biotransformation [19]	Bacterial Biotransformation [20]	SMILES	Bacterial Biotransformation [6]
Compound NOT metabolized	Compound NOT metabolized	Compound NOT metabolized	Compound metabolized	Compound NOT metabolized	Compound NOT metabolized	Compound NOT metabolized	Compound metabolized	Compound metabolized	Compound NOT metabolized	Compound metabolized	Compound NOT metabolized	Compound NOT metabolized	Compound metabolized	Compound metabolized	Compound NOT metabolized	Compound metabolized	Compound NOT metabolized	Compound metabolized	O=C1CN2Cc3c(ccc(Cl)c3Cl)N=C2N1 [ANAGRELIDE]	Compound metabolized
Compound NOT metabolized	Compound NOT metabolized	Compound metabolized	Compound metabolized	Compound NOT metabolized	Compound metabolized	Compound metabolized	Compound metabolized	Compound metabolized	Compound NOT metabolized	Compound NOT metabolized	Compound NOT metabolized	Compound metabolized	Compound metabolized	Compound NOT metabolized	Compound NOT metabolized	Compound metabolized	Compound NOT metabolized	Compound NOT metabolized	CN[C@H]1CC[C@@H](c2ccc(Cl)c(Cl)c2)c2ccccc21 [SERTRALINE]	

The next lines start with the molecule.

SMILES	Bacterial Biotransformation [1]	Bacterial Biotransformation [2]	Bacterial Biotransformation [3]	Bacterial Biotransformation [4]	Bacterial Biotransformation [5]	Bacterial Biotransformation [7]	Bacterial Biotransformation [8]	Bacterial Biotransformation [9]	Bacterial Biotransformation [10]	Bacterial Biotransformation [11]	Bacterial Biotransformation [12]	Bacterial Biotransformation [13]	Bacterial Biotransformation [14]	Bacterial Biotransformation [15]	Bacterial Biotransformation [16]	Bacterial Biotransformation [17]	Bacterial Biotransformation [18]	Bacterial Biotransformation [19]	Bacterial Biotransformation [20]	Bacterial Biotransformation [6]
CCN(CC)C(=O)C1(c2ccccc2)CC1CN (stereo not given)	Compound NOT metabolized	Compound NOT metabolized	Compound NOT metabolized	Compound NOT metabolized	Compound NOT metabolized	Compound NOT metabolized	Compound NOT metabolized	Compound NOT metabolized	Compound NOT metabolized	Compound NOT metabolized	Compound NOT metabolized	Compound NOT metabolized	Compound NOT metabolized	Compound metabolized	Compound NOT metabolized	Compound NOT metabolized	Compound NOT metabolized	Compound NOT metabolized	Compound NOT metabolized	Compound NOT metabolized
Nc1nc(NC2CC2)c2ncn([C@H]3C=C[C@@H](CO)C3)c2n1.Nc1nc(NC2CC2)c2ncn([C@H]3C=C[C@@H](CO)C3)c2n1.O=S(=O)(O)O [ABACAVIR SULFATE]	Compound NOT metabolized	Compound NOT metabolized	Compound NOT metabolized	Compound NOT metabolized	Compound NOT metabolized	Compound metabolized	Compound NOT metabolized	Compound metabolized	Compound NOT metabolized	Compound NOT metabolized	Compound metabolized	Compound NOT metabolized	Compound NOT metabolized	Compound metabolized	Compound metabolized	Compound metabolized	Compound metabolized	Compound metabolized	Compound metabolized	Compound NOT metabolized
CCN(CC)CCNC(=O)c1ccc(NC(C)=O)cc1 [ACECAINIDE]	Compound NOT metabolized	Compound NOT metabolized	Compound NOT metabolized	Compound metabolized	Compound NOT metabolized	Compound NOT metabolized	Compound NOT metabolized	Compound metabolized	Compound NOT metabolized	Compound NOT metabolized	Compound NOT metabolized	Compound NOT metabolized	Compound NOT metabolized	Compound metabolized	Compound NOT metabolized	Compound metabolized	Compound metabolized	Compound NOT metabolized	Compound metabolized	Compound NOT metabolized
Cc1cc2c(s1)Nc1ccccc1N=C2N1CCN(C)CC1 [OLANZAPINE]	Compound NOT metabolized	Compound NOT metabolized	Compound NOT metabolized	Compound NOT metabolized	Compound NOT metabolized	Compound metabolized	Compound NOT metabolized		Compound NOT metabolized	Compound NOT metabolized	Compound metabolized	Compound NOT metabolized	Compound NOT metabolized		Compound NOT metabolized	Compound metabolized	Compound metabolized		Compound metabolized	Compound NOT metabolized
COc1ccc(Cc2nccc3cc(OC)c(OC)cc23)cc1OC [PAPAVERINE]	Compound metabolized	Compound NOT metabolized	Compound metabolized	Compound metabolized	Compound NOT metabolized	Compound metabolized	Compound metabolized		Compound metabolized	Compound NOT metabolized	Compound NOT metabolized	Compound NOT metabolized	Compound NOT metabolized	Compound metabolized	Compound metabolized	Compound metabolized	Compound metabolized	Compound NOT metabolized	Compound metabolized	Compound metabolized
